The values that follow come from patent US9320276B2, “N-hetarylmethyl pyrazolylcarboxamides” (BAYER INTELLECTUAL PROPERTY GMBH, priority 2010, dated 2016).

One experiment has as its system Uromyces appendiculatus. The experiment is described as follows: in vivo preventive test on Uromyces appendiculatus (beans). To be noted: 100 ppm of active ingredient, evaluated 10 days after inoculation. As for the experimental part: (§1) Solvent: 24.5 parts by weight of acetone • 24.5 parts by weight of N,N-dimethylacetamide Emulsifier: 1 part by weight of alkylaryl polyglycol ether To produce a suitable preparation of active compound, 1 part by weight of active compound is mixed with the stated amounts of solvent and emulsifier, and the concentrate is diluted with water to the desired concentration. To test for preventive activity, young plants are sprayed with the preparation of active compound at the stated rate of application. After the spray coating has dried on, the plants are inoculated with an aqueous spore suspension of the causal agent of bean rust (Uromyces appendiculatus) and then remain for 1 day in an incubation cabinet at approximately 20° C. and a relative atmospheric humidity of 100%. The plants are then placed in a greenhouse at approximately 21° C. and a relative atmospheric humidity of approximately 90%. The test is evaluated 10 days after the inoculation. 0% means an efficacy which corresponds to that of the untreated control, while an efficacy of 100% means that no disease is observed.

In a further experiment the test system is Puccinia triticina. The experiment is described as follows: in vivo protective test on Puccinia triticina (wheat). To be noted: 500 ppm of active ingredient, preventive, evaluated 8 days after inoculation. As for the experimental part: Solvent: 49 parts by weight of N,N-dimethylacetamide Emulsifier: 1 part by weight of alkylaryl polyglycol ether To produce a suitable preparation of active compound, 1 part by weight of active compound or active compound combination is mixed with the stated amounts of solvent and emulsifier, and the concentrate is diluted with water to the desired concentration. To test for preventive activity, young plants are sprayed with the preparation of active compound or active compound combination at the stated rate of application. After the spray coating has been dried, the plants are sprayed with a spore suspension of Puccinia triticina. The plants remain for 48 hours in an incubation cabinet at approximately 20° C. and a relative atmospheric humidity of approximately 100%. The plants are placed in the greenhouse at a temperature of approximately 20° C. and a relative atmospheric humidity of approximately 80%. The test is evaluated 8 days after the inoculation. 0% means an efficacy which corresponds to that of the untreated control, while an efficacy of 100% means that no disease is observed.

The next experiment deals with Venturia inaequalis. As to the kind of experiment: in vivo preventive test on Venturia inaequalis (apple scab). To be noted: 100 ppm of active ingredient, evaluated 10 days after inoculation. As for the experimental part: as §1, with “conidia” for “spore”, “apple scab (Venturia inaequalis)” for “bean rust (Uromyces appendiculatus)”
The test system of a further experiment is Botrytis cinerea. As to the kind of experiment: in vivo protective test on Botrytis cinerea (beans). The settings on record: 100 ppm of active ingredient, preventive, lesion size 2 days after inoculation. As for the experimental part:
Solvent: 24.5 parts by weight of acetone • 24.5 parts by weight of N,N-dimethylacetamide Emulsifier: 1 part by weight of alkylaryl polyglycol ether To produce a suitable preparation of active compound, 1 part by weight of active compound is mixed with the stated amounts of solvent and emulsifier, and the concentrate is diluted with water to the desired concentration. To test for preventive activity, young plants are sprayed with the preparation of active compound. After the spray coating has dried on, 2 small pieces of agar covered with growth of Botrytis cinerea are placed on each leaf. The inoculated plants are placed in a darkened chamber at 20° C. and a relative atmospheric humidity of 100%. 2 days after the inoculation, the size of the lesions on the leaves is evaluated. 0% means an efficacy which corresponds to that of the untreated control, while an efficacy of 100% means that no disease is observed.

The test system of a further experiment is Sphaerotheca fuliginea. As to the kind of experiment: in vivo preventive test on Sphaerotheca fuliginea (cucumber). The settings on record: 500 ppm of active ingredient, evaluated 7 days after inoculation. The procedure, abridged:
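Active compound in DMF with alkylarylpolyglycolether emulsifier, diluted in water and sprayed on young cucumber plants at the stated rate. One day later, plants inoculated with S. fuliginea spore suspension and kept at about 23 °C, 70% RH; efficacy scored 7 days post-inoculation, 0% = untreated, 100% = no disease.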

For the molecule `CC(c1cc(Cl)sc1Cl)N(C(=O)c1c(C(F)F)nn(C)c1F)C1CC1` (stereo not shown) [Example 128], the Efficacy is reported as 100% with Uromyces appendiculatus; 100% in the experiment on Puccinia triticina; 100% in the experiment with Venturia inaequalis; 100% in the experiment with Botrytis cinerea; 98% with Sphaerotheca fuliginea.

With `CC(c1cccc2ccsc12)N(C(=O)c1c(C(F)F)nn(C)c1F)C1CC1` (stereo not shown) [Example 91], the Efficacy with Puccinia triticina is listed as 100%; in the experiment on Venturia inaequalis, 100%; in the experiment on Sphaerotheca fuliginea, 88%.

Consider `Cn1nc(C(F)F)c(C(=S)N(Cc2cccc3ccsc23)C2CC2)c1F` [Example 95], for which the Efficacy turned out to be 90% in the experiment with Uromyces appendiculatus, 83% in the experiment with Puccinia triticina, 99% with Venturia inaequalis and 88% in the experiment with Sphaerotheca fuliginea.

`CC(c1cc2ccccc2s1)N(C(=O)c1c(C(F)F)nn(C)c1F)C1CC1` (racemic) [Example 80]: the Efficacy with Puccinia triticina came to 100%; in the experiment on Venturia inaequalis, 100%; with Botrytis cinerea it was 100%; in the experiment with Sphaerotheca fuliginea it was 99%.

Regarding `CC(c1cc2ccccc2o1)N(C(=O)c1c(C(F)F)nn(C)c1F)C1CC1` (racemic) [Example 70], the Efficacy in the experiment with Uromyces appendiculatus amounted to 100%; with Venturia inaequalis, 100%; in the experiment on Botrytis cinerea, 95%; in the experiment with Sphaerotheca fuliginea, 98%.

On to `Cc1sc(-c2ccccc2)cc1C(C)N(C(=O)c1c(C(F)F)nn(C)c1F)C1CC1` (stereo not shown) [Example 147], for which the Efficacy with Uromyces appendiculatus stood at 83%; with Venturia inaequalis, 100%; with Botrytis cinerea it was 100%; in the experiment with Sphaerotheca fuliginea it was 88%.

On to `CC(C)c1nn(-c2ccccc2)c(Cl)c1CN(C(=O)c1c(C(F)F)nn(C)c1F)C1CC1` [Example 169], for which the Efficacy with Uromyces appendiculatus, in the experiment with Puccinia triticina, in the experiment on Botrytis cinerea and in the experiment on Sphaerotheca fuliginea was 100% each time.
